Source: patent US20090156648A1, “Preparations containing pyridoxine and alpha-hydroxyisocaproic acid (HICA)” (IOVATE T. & P. INC., priority 2007, published 2009)

Assay: hygroscopicity and storage stability of the salt as described
Type: physicochemical
Conditions: crystalline powder

## pyridoxine α-hydroxyisocaproate
  hygroscopic nature: non-hygroscopic
  stability in storage: stable in storage
